Test results as given in patent publication US8729030B2 (Affymax, Inc., priority 2003, dated 2014).
Bridges are numbered along the chain shown (N, C = ends). Where no end group is shown, it is not given here. [ ]: non-standard residue; d: D form. 1Nal = N[C@@H](Cc1cccc2ccccc12)C(=O)O; Sar = CNCC(=O)O

Tests used:
[1] = target: chimeric receptor comprising the extra-cellular portion of the human EPO receptor to the intra-cellular portion of the human GCSF receptor; assay: Reporter assay (Baf3/EpoR/GCSFR fos/lux luciferase); format: cell-based; settings: Table 2; Baf3/EpoR/GCSFR fos/lux cells, 4 h
Description: This assay is based upon a on a murine pre-B-cell line derived reporter cell, Baf3/EpoR/GCSFR fos/lux. This reporter cell line expresses a chimeric receptor comprising the extra-cellular portion of the human EPO receptor to the intra-cellular portion of the human GCSF receptor. This cell line is further transfected with a fos promoter-driven luciferase reporter gene construct. Activation of this chimeric receptor through addition of erythropoietic agent results in the expression of the luciferase reporter gene, and therefore the production of light upon addition of the luciferase substrate luciferin. Thus, the level of EPO-R activation in such cells may be quantitated via measurement of luciferase activity.
The Baf3/EpoR/GCSFR fos/lux cells are cultured in DMEM/F12 medium (Gibco) supplemented with 10% fetal bovine serum (FBS; Hyclone), 10% WEHI-3 supernatant (the supernatant from a culture of WEHI-3 cells, ATCC #TIB-68), and penicillin/streptomycin. […] Following a 5-minute incubation, light emission is measured on a Packard Topcount Luminometer (Packard Instrument Co., Downers Grove, Ill.). Light counts are plotted relative to test peptide concentration and analysed using Graph Pad software. The concentration of test peptide that results in a half-maximal emission of light is recorded as the EC50 [See Table 2: Reporter EC50]. […]

[2] = tested on: human, bone marrow derived CD34+ cells; assay: C/BFU-e assay (erythroid colony formation); format: cell-based; settings: Table 2; colonies 90% of maximum relative to EPO control, 14 days
Description: EPO-R signaling stimulates the differentiation of bone marrow stem cells into proliferating red blood cell presursors. This assay measures the ability of test peptides to stimulate the proliferation and differentiation of red blood cell precursors from primary human bone marrow pluripotent stem cells.
For this assay, serial dilutions of test peptide are made in IMDM medium (Gibco) supplemented with 10% FBS (Hyclone). […] The methylcellulose and peptide mixture is then vortexed thoroughly. Aliquots (100,000 cells/mL) of human, bone marrow derived CD34+ cells (Poietics/Cambrex) are thawed. The thawed cells are gently added to 0.1 mL of 1 mg/ml DNAse (Stem Cells) in a 50 mL tube. Next, 40-50 mL IMDM medium is added gently to cells: the medium is added drop by drop along the side of the 50 mL tube for the first 10 mL, and then the remaining volume of medium is slowly dispensed along the side of the tube. The cells are then spun at 900 rpm for 20 min, and the media removed carefully by gentle aspiration. The cells are resuspended in 1 ml of IMDM medium and the cell density per mL is counted on hemacytometer slide (10 μL aliquot of cell suspension on slide, and cell density is the average count×10,000 cells/ml). The cells are then diluted in IMDM medium to a cell density of 15,000 cells/mL. A 100 μL of diluted cells is then added to each 1.5 mL methyl cellulose plus peptide sample (final cell concentration in assay media is 1000 cells/mL), and the mixture is vortexed. Allow the bubbles in the mixture to disappear, and then aspirate 1 mL using blunt-end needle. Add 0.25 mL aspirated mixture from each sample into each of 4 wells of a 24-well plate (Falcon brand). Incubate the plated mixtures at 37° C. under 5% CO2 in a humid incubator for 14 days. Score for the presence of erythroid colonies using a phase microscope (5×-10× objective, final magnification of 100×).
EPO-R signaling stimulates the differentiation of bone marrow stem cells into proliferating red blood cell precursors. […]

EPO-R = target: T1, EPO-R (Homo sapiens, UniProt P19235); assay: Competitive binding assay (AlphaQuest bead proximity, AQ); settings: Table 2; competition with biotinylated EPO-R-binding peptide tracer
T1 construct: made in house; host or cells: Chinese Hamster Ovary cells
T1 sequence (P19235 25-250 limits assumed): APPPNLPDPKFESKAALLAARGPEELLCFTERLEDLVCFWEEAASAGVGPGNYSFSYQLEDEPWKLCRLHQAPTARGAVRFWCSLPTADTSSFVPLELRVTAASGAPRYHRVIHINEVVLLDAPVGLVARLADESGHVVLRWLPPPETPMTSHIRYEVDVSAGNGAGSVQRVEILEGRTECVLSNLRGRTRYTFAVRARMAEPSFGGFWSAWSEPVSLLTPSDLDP
Description: Competitive binding calculations are made using an assay in which a light signal is generated as a function of the proximity of two beads: a streptavidin donor bead bearing a biotinylated EPO-R-binding peptide tracer and an acceptor bead to which is bound EPO-R. Light is generated by non-radiative energy transfer, during which a singlet oxygen is released from a first bead upon illumination, and contact with the released singlet oxygen causes the second bead to emit light. These bead sets are commercially available (Packard). Bead proximity is generated by the binding of the EPO-R-binding peptide tracer to the EPO-R. A test peptide that competes with the EPO-R-binding peptide tracer for binding to EPO-R will prevent this binding, causing a decrease in light emission.
In more detail the method is as follows: Add 4 μL of serial dilutions of the test EPO-R agonist peptide, or positive or negative controls, to wells of a 384 well plate. Thereafter, add 2 μL/well of receptor/bead cocktail. […]
Centrifuge 1 min to mix. […] After 18 hours read light emission using an AlphaQuest reader (Packard). […]

EC50 [1]	EC90 [2]	IC50 (EPO-R)	Substance
0.15 nM	2.7 nM	–	peptide dimer of monomers (AcG)GLYACHMGPIT(1-nal)VCQPLR(MeG) (SEQ ID NO: 3) [Peptide III] (Ac-GGLYACHMGPIT[1Nal]VCQPLR[Sar]; disulfide 6-15 (inferred); not fully specified (residue 1); printed as (AcG)GLYACHMGPIT(1-nal)VCQPLR(MeG); also: homodimer, dimer linkage not given here)
–	2.2 nM	0.11 nM	peptide dimer of monomers (AcG)GLYACHMGPIT(1-nal)VCQPLR(MeG) (SEQ ID NO: 3) [Peptide II] (Ac-GGLYACHMGPIT[1Nal]VCQPLR[Sar]; disulfide 6-15 (inferred); not fully specified (residue 1); printed as (AcG)GLYACHMGPIT(1-nal)VCQPLR(MeG); also: homodimer, dimer linkage not given here)
